The test deals with HepG2-A16-CD81EGFP cells. Particulars: for IC50: read-out: Tox_IC50, HepG2 cytotoxicity.
[1] abbreviates: sheet 2nd round, maximal inhibition in dose response.
[2] abbreviates: 2nd round, maximal inhibition in dose series.

Like-named read-outs stand apart in the source and are kept apart here.

The source of these data is PMC4890880 (ACS infectious diseases, 2016).

As to `CCC(=O)N1CC2(CCN(C(=O)Nc3ccccc3F)CC2)c2c([nH]c3cc(OC)ccc23)[C@@H]1CO` [BRD-K48749217-001-01-8], the IC50 (sheet 2nd round) is more than 10 µM. Moreover, under setting [1], the “Tox_max_inhibition (%)” value worked out at 5.53%.
For `Cc1ccccc1-c1ccc([C@@H]2[C@H](CO)N3CCCCN(S(=O)(=O)Cc4ccccc4)C[C@@H]23)cc1` [BRD-K92048968-001-01-1], in that order: more than 10 µM and 7%.
For the compound `COc1cccc(S(=O)(=O)N2CCCCN3[C@@H](CO)[C@@H](c4ccc(C#CCC(C)C)cc4)[C@@H]3C2)c1` [BRD-K03006541-001-01-3], for the setting “sheet "2nd round"”, the IC50 is more than 10 µM and the “Tox_max_inhibition (%)” value is reported as 5%.
Take `O=C(C[C@@H]1C[C@H]2c3cc(NC(=O)c4ccc5c(c4)OCO5)ccc3O[C@H]2[C@@H](CO)O1)NCc1ccc(Oc2ccccc2)cc1` [BRD-K67862512-001-01-7]: the IC50 (sheet 2nd round) is more than 10 µM. Besides, the “Tox_max_inhibition (%)” value under setting [1] is 23%.
Take `CCCNC(=O)Nc1ccc2c(c1)OC[C@@H](C)N(Cc1ccccc1)C[C@@H](C)[C@H](OC)CN(C)C2=O` [BRD-K76980944-001-01-4]: under setting [2], the “Tox_max_inhibition (%)” value is recorded as 6%. In addition, the IC50 (2nd round, unit inferred) was more than 10 µM.
Turning to `O=C(C[C@H]1C[C@H]2c3cc(NC(=O)c4ccc5c(c4)OCO5)ccc3O[C@H]2[C@H](CO)O1)NCc1ccc(Oc2ccccc2)cc1` [BRD-K67774729-001-02-1], the IC50 (sheet 2nd round) was more than 10 µM. The “Tox_max_inhibition (%)” value under setting [1] was determined as 24%.
For `COc1ccc2c3c(n(C)c2c1)[C@H](CO)N(Cc1ccc2c(c1)OCO2)CC31CN(C(=O)c2ccc3c(c2)OCO3)C1` [BRD-K24711160-001-01-3], in that order: more than 10 µM and 3%.
Consider `CCCNC(=O)N1[C@H](C#N)[C@H](c2ccc(-c3cccc(OC)c3)cc2)[C@@H]1CO` [BRD-K80906650-001-01-7], for which, for the setting “sheet "2nd round"”, the IC50 was more than 10 µM and the “Tox_max_inhibition (%)” value is 45%.
For the compound `C[C@@H]1CCCCO[C@@H](CN(C)S(=O)(=O)c2ccccc2)[C@H](C)CN([C@H](C)CO)C(=O)c2cc(NC(=O)Nc3ccc4c(c3)OCO4)ccc2O1` [BRD-K87351697-001-01-4], the IC50 (sheet 2nd round) is more than 10 µM. For the same compound, the “Tox_max_inhibition (%)” value under setting [1] is recorded as 5%.
Consider `Cc1ccc(S(=O)(=O)N2CC[C@H]3[C@H](CO)Nc4ccc(-c5cccc(C(=O)N(C)C)c5)cc4[C@H]32)cc1` [BRD-K64741770-001-01-3], for which the IC50 (sheet 2nd round) was more than 10 µM. The “Tox_max_inhibition (%)” value under setting [1] is given as 15%.
As to `COc1ccccc1-c1ccc2c(c1)[C@@H]1[C@@H](CCN1C(=O)C1CCC1)[C@H](CO)N2` [BRD-K72492940-001-01-8], where the note is “sheet 2nd round”, the IC50 is more than 10 µM. The “Tox_max_inhibition (%)” value under setting [1] is 18%.
The corresponding values for `C[C@H](CO)N1C[C@H](C)[C@H](CN(C)S(=O)(=O)c2ccc(C(F)(F)F)cc2)OCc2ccccc2-c2c(n(C)c3ccccc23)C1=O` [BRD-K10380905-001-01-3] are more than 10 µM and 20%.
The corresponding values for `C[C@@H]1CN([C@H](C)CO)C(=O)c2cc(NC(=O)Nc3ccc4c(c3)OCO4)ccc2O[C@@H](C)CCCCO[C@H]1CN(C)S(=O)(=O)c1ccccc1` [BRD-K54383078-001-01-5] are more than 10 µM and 5.48%.
As to `COc1ccc(-c2ccc([C@H]3[C@@H](C#N)N(C(=O)NC(C)C)[C@H]3CO)cc2)cc1` [BRD-K15519105-001-01-9], for the setting “sheet "2nd round"”, the IC50 is more than 10 µM and the “Tox_max_inhibition (%)” value was 38%.
As for `CCCNC(=O)N1[C@H](C#N)[C@H](c2ccc(-c3ccccc3F)cc2)[C@@H]1CO` [BRD-K81164606-001-02-5], the “Tox_max_inhibition (%)” value under setting [2] came to 43%. Moreover, where the note is “2nd round, unit inferred”, the IC50 was more than 10 µM.
With `COc1ccc(NC(=O)N2CCCCN3[C@H](CN(C)C)[C@H](c4ccc(C#Cc5ccccc5)cc4)[C@@H]3C2)cc1` [BRD-K78727929-001-08-1], the IC50 (sheet 2nd round) came to 8.47 µM. In addition, the “Tox_max_inhibition (%)” value under setting [1] is given as 100%.
For `C[C@@H]1CN([C@@H](C)CO)C(=O)c2cc(N(C)C)ccc2O[C@@H](C)CCCCO[C@H]1CN(C)S(=O)(=O)c1ccc(F)cc1` [BRD-K72173400-001-01-7], in that order: more than 10 µM and 6%.
